Measurements: ChEMBL document CHEMBL1201862, “PubChem BioAssay data set” (2004)
Activity calls are given as the source filed them.

Columns and labels:
[1] = NIH-3T3 fibroblast cytotoxicity, dose response, cytotoxicity control, cell-based, fluorescence, Alamar Blue, secondary assay (AID 2327); assay type: functional;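 also: NIH-3T3 mouse fibroblasts cultured with fluconazole at 8 µg/mL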
[2] = NIH-3T3 fibroblast cytotoxicity, dose response, cytotoxicity control for antifungal single agent project, cell-based, Alamar Blue, dry powder (AID 602188); assay type: functional
Beta-galactosidase [3] = molecular target: T1, Beta-galactosidase (Escherichia coli, UniProt Q8VNN2); assay: Dose response counterscreen for EBI2 assay utilizing the enzyme, b-galactosidase.; assay type: functional
T1 sequence (Q8VNN2 whole entry): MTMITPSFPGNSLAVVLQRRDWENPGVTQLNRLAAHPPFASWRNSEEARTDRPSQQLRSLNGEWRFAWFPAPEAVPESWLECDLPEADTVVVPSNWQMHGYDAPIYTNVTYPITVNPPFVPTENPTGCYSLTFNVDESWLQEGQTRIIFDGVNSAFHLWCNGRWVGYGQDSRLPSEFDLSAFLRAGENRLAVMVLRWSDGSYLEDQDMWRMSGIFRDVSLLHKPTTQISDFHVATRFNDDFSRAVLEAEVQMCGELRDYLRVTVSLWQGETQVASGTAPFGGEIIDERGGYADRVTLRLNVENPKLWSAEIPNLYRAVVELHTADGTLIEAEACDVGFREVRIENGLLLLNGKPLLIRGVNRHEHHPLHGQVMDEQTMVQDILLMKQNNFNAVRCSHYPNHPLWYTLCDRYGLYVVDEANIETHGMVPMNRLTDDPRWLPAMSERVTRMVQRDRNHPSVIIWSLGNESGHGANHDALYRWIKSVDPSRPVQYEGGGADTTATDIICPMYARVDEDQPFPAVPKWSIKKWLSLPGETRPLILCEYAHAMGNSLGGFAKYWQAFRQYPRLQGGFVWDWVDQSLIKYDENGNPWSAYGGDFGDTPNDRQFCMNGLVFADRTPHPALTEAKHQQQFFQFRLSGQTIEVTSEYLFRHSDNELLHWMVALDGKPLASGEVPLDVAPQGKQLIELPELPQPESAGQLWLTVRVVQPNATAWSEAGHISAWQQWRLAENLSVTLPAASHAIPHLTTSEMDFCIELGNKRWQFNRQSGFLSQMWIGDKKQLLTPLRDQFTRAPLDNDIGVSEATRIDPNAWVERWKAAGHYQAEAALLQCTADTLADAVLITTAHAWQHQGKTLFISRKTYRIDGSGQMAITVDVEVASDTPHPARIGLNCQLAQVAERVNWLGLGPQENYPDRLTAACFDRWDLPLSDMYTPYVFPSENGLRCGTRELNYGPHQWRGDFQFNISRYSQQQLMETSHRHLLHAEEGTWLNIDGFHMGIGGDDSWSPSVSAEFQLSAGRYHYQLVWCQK

[4] = molecular target: T2, Serine/threonine-protein phosphatase (Candida dubliniensis (strain CD36 / CBS 7987 / NCPF 3949 / NRRLY-17841) (Yeast), UniProt B9W6M3); assay: calcineurin pathway inhibitors in yeast reporter, dose response, S. cerevisiae, CDRE-lacZ, luminescence, secondary (AID 2388); assay type: functional, cell-based;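 also: yeast reporter cells carrying a calcineurin-responsive lacZ construct stimulated with calcium chloride; luminescent beta-galactosidase reporter signal in whole cells rather than isolated phosphatase activity; potency for inhibition where a drop in reporter signal means calcineurin blockade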
T2 sequence (B9W6M3 whole entry): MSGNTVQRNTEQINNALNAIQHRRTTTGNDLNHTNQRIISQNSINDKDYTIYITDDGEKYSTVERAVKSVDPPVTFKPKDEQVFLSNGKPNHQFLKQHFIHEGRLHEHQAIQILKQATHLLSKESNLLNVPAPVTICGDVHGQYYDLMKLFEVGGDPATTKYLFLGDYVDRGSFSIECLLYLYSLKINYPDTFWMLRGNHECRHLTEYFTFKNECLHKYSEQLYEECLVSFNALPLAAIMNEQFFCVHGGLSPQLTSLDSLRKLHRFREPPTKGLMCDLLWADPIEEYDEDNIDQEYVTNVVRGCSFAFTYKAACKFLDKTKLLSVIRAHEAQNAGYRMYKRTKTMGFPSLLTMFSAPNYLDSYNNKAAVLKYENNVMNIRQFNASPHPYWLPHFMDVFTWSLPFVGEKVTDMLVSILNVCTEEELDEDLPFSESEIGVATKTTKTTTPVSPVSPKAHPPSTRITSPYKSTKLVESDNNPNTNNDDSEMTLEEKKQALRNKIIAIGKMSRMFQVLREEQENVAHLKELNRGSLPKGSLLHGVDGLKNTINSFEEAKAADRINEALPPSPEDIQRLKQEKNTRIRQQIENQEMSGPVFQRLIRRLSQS

INS1 = assay: beta cell apoptosis inhibitors, cytokine rescue, dose response, luminescence, retest (AID 449756); assay type: functional, cell-based; settings: Rattus norvegicus;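 also: cell death triggered by IL-1 beta plus TNF-alpha plus IFN-gamma mixture; protective hits raise ATP signal compared with cytokine alone wells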
Vero = Vero cell cytotoxicity, cytotoxicity control for flavivirus capping enzyme inhibitors (AID 588742); assay type: functional; settings: Chlorocebus sabaeus
Nonstructural protein 1 = Nonstructural protein 1 (Influenza A virus, UniProt Q194T2); assay type: functional, Influenza A virus (A/California/07/2009(H1N1))
Chain of Nonstructural protein 1 (Q194T2 whole entry): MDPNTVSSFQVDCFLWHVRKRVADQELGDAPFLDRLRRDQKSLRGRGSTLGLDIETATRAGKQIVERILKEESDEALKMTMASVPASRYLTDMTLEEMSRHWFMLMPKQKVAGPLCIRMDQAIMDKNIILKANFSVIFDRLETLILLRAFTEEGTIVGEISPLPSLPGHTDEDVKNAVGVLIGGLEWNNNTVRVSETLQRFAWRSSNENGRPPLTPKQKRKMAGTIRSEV

[5] = C. albicans growth with fluconazole, confirmation, fluorescence, retest (AID 2467); assay type: functional, cell-based
Beta-galactosidase [6] = molecular target: T1, Beta-galactosidase; assay type: functional
[7] = molecular target: Heat shock protein HSP 90-alpha (Homo sapiens, UniProt P07900); assay type: functional, organism-based
[8] = molecular target: T3, Kappa-type opioid receptor (Homo sapiens, UniProt P41145); assay type: functional
T3 sequence (P41145 whole entry): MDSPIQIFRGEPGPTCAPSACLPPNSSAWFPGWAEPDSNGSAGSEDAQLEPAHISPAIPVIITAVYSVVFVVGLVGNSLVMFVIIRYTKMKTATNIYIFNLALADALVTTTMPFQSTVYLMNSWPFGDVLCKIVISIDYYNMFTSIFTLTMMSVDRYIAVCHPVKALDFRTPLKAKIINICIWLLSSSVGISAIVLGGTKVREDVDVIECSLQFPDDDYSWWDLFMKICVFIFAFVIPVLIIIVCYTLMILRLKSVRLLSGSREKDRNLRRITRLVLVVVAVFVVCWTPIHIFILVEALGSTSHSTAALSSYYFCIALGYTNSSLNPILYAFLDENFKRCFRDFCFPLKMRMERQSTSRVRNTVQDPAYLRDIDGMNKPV

[9] = molecular target: ATP-dependent molecular chaperone HSP82 (Candida albicans (strain WO-1) (Yeast), UniProt C4YTQ8); assay: loss of DOC-induced GRE-beta-galactosidase reporter signal, dose response, Hsp90 inhibitor project, S. cerevisiae, luminescence (AID 2400); assay type: functional, cell-based;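 also: beta-galactosidase luminescence from glucocorticoid response element reporter as proxy for Hsp90 function; inhibitor potency where signal loss means Hsp90 inhibition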
Chain of ATP-dependent molecular chaperone HSP82 (C4YTQ8 whole entry): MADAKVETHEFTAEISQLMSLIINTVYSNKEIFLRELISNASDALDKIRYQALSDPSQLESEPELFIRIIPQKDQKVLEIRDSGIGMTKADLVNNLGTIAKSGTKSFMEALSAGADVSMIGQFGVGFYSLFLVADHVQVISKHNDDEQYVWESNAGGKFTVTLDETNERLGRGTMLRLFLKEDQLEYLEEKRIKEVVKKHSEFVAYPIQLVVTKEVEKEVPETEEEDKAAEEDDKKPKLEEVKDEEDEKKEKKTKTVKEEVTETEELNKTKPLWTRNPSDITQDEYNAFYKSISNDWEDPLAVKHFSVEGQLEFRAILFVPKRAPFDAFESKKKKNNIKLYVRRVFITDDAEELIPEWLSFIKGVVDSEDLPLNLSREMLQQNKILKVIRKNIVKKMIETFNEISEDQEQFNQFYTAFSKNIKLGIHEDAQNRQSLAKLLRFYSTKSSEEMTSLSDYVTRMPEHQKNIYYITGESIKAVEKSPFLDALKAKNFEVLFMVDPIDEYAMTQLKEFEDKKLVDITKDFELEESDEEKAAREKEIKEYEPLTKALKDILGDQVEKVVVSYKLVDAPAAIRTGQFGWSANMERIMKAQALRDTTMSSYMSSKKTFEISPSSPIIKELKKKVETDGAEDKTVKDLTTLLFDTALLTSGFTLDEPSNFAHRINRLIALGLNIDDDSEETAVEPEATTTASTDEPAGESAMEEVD

[10] = molecular target: T3, Kappa-type opioid receptor; assay type: functional; remark: listed apart in the source
[11] = molecular target: T4, Mannose-6-phosphate isomerase (Homo sapiens, UniProt P34949); assay: Confirmation of compounds inhibiting phosphomannose isomerase (PMI) via a fluorescence intensity assay using a high concentration of mannose 6-phosphate. [Related pubchem assays (depositor defined):AID1209, AID1220, AID1545, AID1553, AID1620]
T4 sequence (P34949 whole entry): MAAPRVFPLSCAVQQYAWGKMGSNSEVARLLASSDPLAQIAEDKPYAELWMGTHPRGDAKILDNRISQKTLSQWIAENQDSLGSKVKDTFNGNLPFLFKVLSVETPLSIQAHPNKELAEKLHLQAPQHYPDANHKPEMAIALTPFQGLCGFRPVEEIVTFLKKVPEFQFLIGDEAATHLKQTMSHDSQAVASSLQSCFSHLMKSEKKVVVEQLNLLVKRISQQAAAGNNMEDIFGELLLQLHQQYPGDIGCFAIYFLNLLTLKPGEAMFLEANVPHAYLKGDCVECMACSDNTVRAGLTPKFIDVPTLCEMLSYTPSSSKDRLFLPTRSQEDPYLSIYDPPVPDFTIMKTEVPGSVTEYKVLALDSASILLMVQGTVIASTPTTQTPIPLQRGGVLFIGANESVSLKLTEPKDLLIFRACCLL

[12] = molecular target: Alkaline phosphatase, placental type (Homo sapiens, UniProt P05187); assay: PLAP enzyme inhibitors, confirmation, biochemical, luminescence (AID 1512); assay type: functional
Chain of Alkaline phosphatase, placental type (P05187 whole entry): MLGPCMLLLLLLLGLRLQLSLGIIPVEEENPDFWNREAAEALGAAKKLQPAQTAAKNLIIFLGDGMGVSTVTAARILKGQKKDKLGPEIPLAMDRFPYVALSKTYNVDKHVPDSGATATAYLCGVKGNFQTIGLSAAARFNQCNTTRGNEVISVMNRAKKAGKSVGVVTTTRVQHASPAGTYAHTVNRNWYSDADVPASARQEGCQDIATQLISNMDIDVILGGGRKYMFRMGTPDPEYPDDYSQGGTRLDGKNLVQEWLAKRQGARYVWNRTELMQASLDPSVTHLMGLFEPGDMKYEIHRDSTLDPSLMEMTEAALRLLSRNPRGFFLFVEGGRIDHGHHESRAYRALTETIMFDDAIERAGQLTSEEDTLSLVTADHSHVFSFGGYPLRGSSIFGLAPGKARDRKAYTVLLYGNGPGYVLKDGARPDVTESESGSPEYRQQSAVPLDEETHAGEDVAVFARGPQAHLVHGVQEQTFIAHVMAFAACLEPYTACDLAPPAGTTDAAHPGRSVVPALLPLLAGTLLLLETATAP

[13] = molecular target: T4, Mannose-6-phosphate isomerase; assay: PMI enzyme inhibitors, confirmation, biochemical, fluorescence intensity (AID 1535)
[14] = molecular target: T3, Kappa-type opioid receptor; assay: SAR analysis of small molecule antagonists of the kappa opioid receptor via a luminescent beta-arrestin assay - Set 6. [Related pubchem assays (depositor defined):AID1777, AID1778, AID1785, AID1786, AID1966, AID2133, AID2136, AID2285]; assay type: functional
[15] = molecular target: T3, Kappa-type opioid receptor; assay: SAR analysis of small molecule antagonists of the kappa opioid receptor via a luminescent beta-arrestin assay - Set 3. [Related pubchem assays (depositor defined):AID1777, AID1778, AID1785, AID1786, AID1966, AID2133, AID2136, AID2285, AID2495]; assay type: functional
[16] = molecular target: Delta-type opioid receptor (Homo sapiens, UniProt P41143); assay: SAR Analysis of Antagonists of the DOR Receptor using an Image-Based Assay - Set 3. [Related pubchem assays (depositor defined):AID1777, AID1785]; assay type: functional;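 also: U2OS cells expressing DOR1 and beta-arrestin GFP stimulated with 100 nM SNC80; imaging of GFP-tagged beta-arrestin moving into spots after receptor activation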
Chain of Delta-type opioid receptor (P41143 whole entry): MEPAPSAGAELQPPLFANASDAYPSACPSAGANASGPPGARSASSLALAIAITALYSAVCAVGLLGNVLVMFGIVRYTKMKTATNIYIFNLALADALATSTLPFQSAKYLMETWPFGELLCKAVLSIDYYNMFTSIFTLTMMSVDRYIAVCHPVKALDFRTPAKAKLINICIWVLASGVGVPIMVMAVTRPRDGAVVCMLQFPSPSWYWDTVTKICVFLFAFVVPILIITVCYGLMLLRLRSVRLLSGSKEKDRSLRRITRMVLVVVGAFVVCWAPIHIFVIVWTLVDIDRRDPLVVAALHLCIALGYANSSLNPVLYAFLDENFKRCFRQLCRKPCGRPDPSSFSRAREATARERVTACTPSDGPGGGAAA

Mu-type opioid receptor = Mu-type opioid receptor (Homo sapiens, UniProt P35372); assay: SAR Analysis of Antagonists of the MOR Receptor using an Image-Based Assay - Set 3. [Related pubchem assays (depositor defined):AID1777, AID1785, AID1786, AID1966, AID2133, AID2136, AID2284, AID2285, AID2420]; assay type: functional
Chain of Mu-type opioid receptor (P35372 whole entry): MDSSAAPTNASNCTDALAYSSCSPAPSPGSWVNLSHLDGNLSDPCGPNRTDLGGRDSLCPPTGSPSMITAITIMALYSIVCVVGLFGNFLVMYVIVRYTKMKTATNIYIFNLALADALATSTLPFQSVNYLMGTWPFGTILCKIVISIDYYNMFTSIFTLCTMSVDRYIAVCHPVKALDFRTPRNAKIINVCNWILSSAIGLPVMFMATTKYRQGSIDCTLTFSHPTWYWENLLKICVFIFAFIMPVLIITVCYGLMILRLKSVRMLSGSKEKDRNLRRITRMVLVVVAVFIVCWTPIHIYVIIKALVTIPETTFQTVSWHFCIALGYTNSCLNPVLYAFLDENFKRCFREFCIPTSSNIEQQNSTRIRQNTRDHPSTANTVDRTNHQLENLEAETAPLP

[17] = molecular target: T3, Kappa-type opioid receptor; assay: SAR analysis of Antagonists of the Kappa Opioid Receptor (KOR) using an Image-Based Assay - Set 4. [Related pubchem assays (depositor defined):AID1777, AID1785]; assay type: functional
[18] = molecular target: T5, Short transient receptor potential channel 4 (Mus musculus, UniProt Q9QUQ5); assay: TRPC4 positive allosteric modulators, dose response, cell-based, HEK293 TRPC4/mu-opioid, Fluo-4 calcium, EC20 DAMGO (AID 434941); assay type: functional
T5 sequence (Q9QUQ5 whole entry): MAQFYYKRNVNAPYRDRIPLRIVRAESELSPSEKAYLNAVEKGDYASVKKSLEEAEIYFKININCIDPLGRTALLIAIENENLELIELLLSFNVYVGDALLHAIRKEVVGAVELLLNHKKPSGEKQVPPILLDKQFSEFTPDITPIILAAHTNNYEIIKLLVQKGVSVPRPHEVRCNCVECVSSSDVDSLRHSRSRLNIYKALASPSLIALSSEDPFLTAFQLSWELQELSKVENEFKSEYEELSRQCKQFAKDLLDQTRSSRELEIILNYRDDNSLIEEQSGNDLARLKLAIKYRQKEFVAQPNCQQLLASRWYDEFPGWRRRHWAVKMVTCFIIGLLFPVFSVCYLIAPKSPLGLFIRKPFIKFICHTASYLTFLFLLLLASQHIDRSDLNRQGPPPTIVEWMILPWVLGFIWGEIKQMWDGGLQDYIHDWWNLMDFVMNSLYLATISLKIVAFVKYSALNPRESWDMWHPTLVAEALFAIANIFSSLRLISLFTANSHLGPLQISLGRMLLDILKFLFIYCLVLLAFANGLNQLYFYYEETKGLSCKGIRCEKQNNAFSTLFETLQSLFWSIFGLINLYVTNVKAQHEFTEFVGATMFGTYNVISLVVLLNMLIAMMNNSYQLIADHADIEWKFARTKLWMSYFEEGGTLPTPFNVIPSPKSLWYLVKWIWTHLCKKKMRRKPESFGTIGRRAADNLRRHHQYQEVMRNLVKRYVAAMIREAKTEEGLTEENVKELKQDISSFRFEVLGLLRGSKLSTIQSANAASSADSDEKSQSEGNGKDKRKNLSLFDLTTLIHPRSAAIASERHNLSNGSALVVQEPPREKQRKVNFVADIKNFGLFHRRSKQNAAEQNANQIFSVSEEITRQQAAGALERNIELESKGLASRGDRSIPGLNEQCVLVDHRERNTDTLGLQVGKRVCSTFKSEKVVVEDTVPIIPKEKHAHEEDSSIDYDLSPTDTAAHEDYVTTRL

Neutrophil collagenase = Neutrophil collagenase (Homo sapiens, UniProt P22894); assay: MMP13 inhibition and MMP selectivity, late-stage follow-up, selectivity assay for MMP13 inhibitor project, biochemical, probe development, late stage results, panel member MMP-8 [IC50 Assay] (AID 2067)
Chain of Neutrophil collagenase (P22894 whole entry): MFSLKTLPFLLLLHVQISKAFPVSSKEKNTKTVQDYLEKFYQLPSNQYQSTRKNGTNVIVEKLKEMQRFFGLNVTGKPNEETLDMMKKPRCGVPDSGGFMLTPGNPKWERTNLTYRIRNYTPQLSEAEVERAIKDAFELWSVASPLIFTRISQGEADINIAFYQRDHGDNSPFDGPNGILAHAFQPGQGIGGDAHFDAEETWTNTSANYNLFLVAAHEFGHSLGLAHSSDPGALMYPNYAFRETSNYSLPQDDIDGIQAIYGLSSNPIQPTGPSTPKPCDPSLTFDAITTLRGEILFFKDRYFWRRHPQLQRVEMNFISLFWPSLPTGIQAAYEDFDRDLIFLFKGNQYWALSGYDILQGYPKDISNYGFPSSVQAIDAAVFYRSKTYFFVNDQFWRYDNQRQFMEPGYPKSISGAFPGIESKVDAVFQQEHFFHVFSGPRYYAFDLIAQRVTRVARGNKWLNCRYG

Collagenase 3 = Collagenase 3 (Homo sapiens, UniProt P45452); assay: MMP13 inhibition and MMP selectivity, late-stage follow-up, selectivity assay for MMP13 inhibitor project, biochemical, probe development, late stage results, panel member MMP-13 [IC50 Assay] (AID 2067)

**Q.** For `C/C(=N\NC(=O)c1cc2ccccc2cc1O)c1ccccn1`, which EC50 [1] is on record?
**A.** > 150 µM (inactive)

**Q.** What about the AC50 [2] of the same compound?
**A.** 0.729 µM (active)

**Q.** What about the IC50 (Beta-galactosidase [3]) of the same compound?
**A.** 136 µM (inactive)

**Q.** And the EC50 [4]?
**A.** > 180 µM (inactive)

**Q.** What about the AC50 (INS1) of the same compound?
**A.** 0.958 µM (active)

**Q.** What about the CC50 (Vero) of the same compound?
**A.** 1.93 µM (active)

**Q.** What about the IC50 (Nonstructural protein 1) of the same compound?
**A.** 3.77 µM (active)

**Q.** What about the EC50 [5] of the same compound?
**A.** 1.02 µM (active)

**Q.** And the EC50 (Beta-galactosidase [6])?
**A.** > 31.5 µM (inactive)

**Q.** What about the AC50 [7] of the same compound?
**A.** 6.63 µM (active)

**Q.** What about the IC50 [8] of the same compound?
**A.** 2.14 µM (active)

**Q.** And the EC50 [9]?
**A.** 4.08 µM (active)

**Q.** What about the IC50 [10] of the same compound?
**A.** > 32 µM

**Q.** Which IC50 [11] does the source give for `O=C1Nc2ccc([N+](=O)[O-])cc2C12NNc1ccccc1O2` (centres undefined) here?
**A.** > 100 µM (inactive)

**Q.** And the IC50 [12]?
**A.** > 100 µM (inactive)

**Q.** What about the IC50 [13] of the same compound?
**A.** > 100 µM (inactive)

**Q.** For `O=C(Cn1c(=O)c2cccn2c2cc(Br)cnc21)NCCCN1CCN(c2ccc3c(c2)OCO3)CC1`, which IC50 [14] is on record?
**A.** 2.42 µM (active)

**Q.** What about the IC50 [15] of the same compound?
**A.** 3.81 µM (active)

**Q.** What about the IC50 [16] of the same compound?
**A.** > 32 µM (inactive)

**Q.** What about the IC50 (Mu-type opioid receptor) of the same compound?
**A.** > 32 µM (inactive)

**Q.** And the IC50 [17]?
**A.** 0.147 µM (active)

**Q.** Which EC50 [18] does the source give for `CCOC(=O)C(O)(c1ccc(NC(=S)NC(=O)c2ccc(Cl)cc2Cl)c(C)c1)C(F)(F)F` (centres undefined) here?
**A.** 3.35 µM (active)

**Q.** What does the source list for `CCCCSc1nc(O)c2c(n1)CCC2`?
**A.** IC50 (Neutrophil collagenase): > 39.8 µM (active); IC50 (Collagenase 3): > 39.8 µM (active)
